Laboratory results as given in article PMC6627374, “Effects of the Pentapeptide P33 on Memory and Synaptic Plasticity in APP/PS1 Transgenic Mice: A Novel Mechanism Presenting the Protein Fe65 as a Target” (International Journal of Molecular Sciences, 2019).
Where a SMILES comes first, the peptide text is derived from it.

Assays:
Fe65 = assay: Western blot, Fe65 level in brain; type: in vivo, mouse; settings: APP/PS1 mice; 5 mg∙kg^−1 i.p., five days per week, six months; HC and CTX
Procedure: (§1) For this study, three-month-old male and female WT and APP/PS1 mice (n = 37) were used. Four groups were defined: WT-vehicle (physiological saline) (male n = 4; female n = 6), WT-P33 (male n = 6; female n = 5), APP/PS1-vehicle (male n = 3; female n = 5), and APP/PS1-P33 (male n = 6; female n = 2). Animals were subjected to intraperitoneal (i.p.) injections of P33 (5 mg∙kg^−1) for five days per week, over a course of six months. The mice were kept in groups under constant temperature (23 ± 0.5 °C), lighting (12-h/12-h light/dark cycle, lights on at 7:00 a.m.), and humidity (~50%). Standard mouse chow and tap water were supplied ad libitum. All behavioral experiments were performed in the light period. Handling was done daily at the same time.
Nine-month-old mice (three animals per group) were euthanized via cervical dislocation. […] To quantify the level of Aβ in the mice, we used a sandwich ELISA Kit (Innotest Amyloid-[…]) from Innogenetics (Gent, Belgium), following the instructions of the manufacturer. The absorbance values were measured at 450 nm on a 96-well plate reader (NOVOstar OPTIMA, BMG Labtech, Offenburg, Germany). […]
The results of spine density and immunohistochemistry experiments were calculated with one-way ANOVA followed by Fisher’s LSD post hoc tests. […] Data were analyzed with SPSS (IBM SPSS Statistics 24), and were expressed as the mean ± standard error of the mean (SEM). […]

[1] = tested on: APP/PS1 mice and C57BL/6 wild-type (WT) mice; assay: Morris water maze (MWM), spatial learning and memory; type: in vivo, mouse; settings: for intersection area with vehicle group (bootstrap 2D contours): vehicle vs P33, 90% contours
Procedure: as §1
The experiment lasted for five days, and was conducted on every occasion in the light period. Mice were tested twice every day when they were allowed to swim until they found the platform. […] Four different starting points were used during the experiment; starting points were changed randomly during the tests. Trajectories of the mice were recorded with a video camera fixed on the ceiling, equipped with the software EthoVision XT8 (Noldus Information Technology, The Netherlands, 2011). The tracking system calculated the time to reach the platform, swimming speed, length of the swimming path (distance), and percentage time spent in each of the four virtual quadrants during the trials.
Behavioral data were analyzed by mixed ANOVA, followed by Fisher’s LSD post hoc tests for multiple comparisons. The classical and modified ANOVA data evaluation methods applied for the raw measurements could detect only some significant effects without explaining their positions. Convenient post hoc analysis methods, like Student’s t-statistics, need a Gaussian distribution of the analysis data. Additionally, only the probability of the false positive decision error can be set up, and the probability of the false negative decision error remains unknown. Therefore, we developed and used nonparametric statistics. The one-response variable data (swimming times) were used to generate a two-variable model: (1) the reciprocal of the slope of the fitted straight line between the swimming time and the days (its negative values close to zero indicate an improvement in the memory and learning functions of the mice from day to day); (2) swimming time data of the last day (closeness to zero indicates an effective learning process). The two variables were combined, and evaluating them together gave more reliable multiple statistical results. […]

## C[C@@H](N)C(=O)N1CCC[C@@H]1C(=O)N[C@H](C)C(=O)N1CCC[C@@H]1C(=O)N[C@H](CCC(=O)O)C(N)=O [P33] (HELM PEPTIDE1{[dA].[dP].[dA].[dP].[dE].[am]}$$$$V2.0)
Fe65
  Fe65 level, effect of P33 (in words): could not be considerably changed by the treatment with P33
[1]; APP/PS1-P33, 50,000 resamples, 1/m and yend
  permutation test of swimming times vs randomness (in words): significant improvement, as the randomness of the measurements was drastically decreased
[1]; APP/PS1 groups, % of total areas of both, 50,000 resamples
  intersection area with vehicle group (bootstrap 2D contours): approximately 2%
[1]; APP/PS1 mice, 5 mg∙kg^−1 i.p., six months, MWM five days
  latency to find the platform, effect of P33 (in words): seemed to have a positive effect on their learning abilities
[1]; WT groups, % of total area of P33 treatment (vehicle 32%), 50,000 resamples
  intersection area with vehicle group (bootstrap 2D contours): 89%
